# Calls of active or inactive are those of the source.
# Experiments:
# [1] = target: T1, Calpain-2 catalytic subunit (Sus scrofa, UniProt P43367); test: m-calpain protease blockers, concentration series – biochemical, fluorogenic peptide substrate, dose response (AID 1420); format: functional
# T1 sequence (P43367 whole entry): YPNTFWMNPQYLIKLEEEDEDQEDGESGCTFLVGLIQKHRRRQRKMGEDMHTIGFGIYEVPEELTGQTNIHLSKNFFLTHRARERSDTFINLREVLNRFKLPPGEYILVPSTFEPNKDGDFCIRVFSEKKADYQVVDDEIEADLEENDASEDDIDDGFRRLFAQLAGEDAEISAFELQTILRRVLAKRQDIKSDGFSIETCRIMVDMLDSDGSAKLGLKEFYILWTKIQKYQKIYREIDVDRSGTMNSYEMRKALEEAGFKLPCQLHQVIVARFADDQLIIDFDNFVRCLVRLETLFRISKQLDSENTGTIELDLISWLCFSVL
# [2] = target: T2, Disintegrin and metalloproteinase domain-containing protein 17 (Homo sapiens, UniProt P78536); test: exosite inhibitors of ADAM17, dose response, biochemical (AID 743260)
# T2 sequence (P78536 whole entry, the tested form may be a part): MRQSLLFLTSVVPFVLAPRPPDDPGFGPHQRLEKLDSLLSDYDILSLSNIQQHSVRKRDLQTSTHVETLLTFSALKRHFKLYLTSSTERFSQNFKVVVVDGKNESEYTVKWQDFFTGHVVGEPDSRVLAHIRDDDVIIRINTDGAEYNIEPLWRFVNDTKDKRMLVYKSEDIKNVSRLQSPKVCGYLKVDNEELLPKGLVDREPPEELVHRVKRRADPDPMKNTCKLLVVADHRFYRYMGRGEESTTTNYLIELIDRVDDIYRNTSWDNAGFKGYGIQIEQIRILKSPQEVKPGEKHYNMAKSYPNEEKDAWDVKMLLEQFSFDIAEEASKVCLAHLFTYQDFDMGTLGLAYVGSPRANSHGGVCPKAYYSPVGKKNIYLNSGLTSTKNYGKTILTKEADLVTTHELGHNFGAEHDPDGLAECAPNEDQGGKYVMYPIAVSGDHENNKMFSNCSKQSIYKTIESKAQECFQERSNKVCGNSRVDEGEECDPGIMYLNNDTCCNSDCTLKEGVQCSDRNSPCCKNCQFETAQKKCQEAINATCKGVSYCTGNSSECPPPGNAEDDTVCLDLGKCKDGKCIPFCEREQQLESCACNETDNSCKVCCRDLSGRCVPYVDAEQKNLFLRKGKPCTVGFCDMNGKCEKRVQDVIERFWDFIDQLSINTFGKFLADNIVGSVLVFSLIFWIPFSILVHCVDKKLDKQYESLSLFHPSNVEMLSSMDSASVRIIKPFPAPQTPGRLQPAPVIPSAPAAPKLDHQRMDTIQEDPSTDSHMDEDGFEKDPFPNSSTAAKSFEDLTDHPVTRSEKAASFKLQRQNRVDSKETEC
# [3] = inhibition of ADAM10 peptide cleavage – biochemical, FRET peptide substrate, recombinant human ADAM10, selectivity assay for ADAM17 exosite inhibitor project, dose response (AID 743259);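 note: ADAM10 enzyme cleaving a FRET peptide substrate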
# [4] = target: E3 ubiquitin-protein ligase UHRF1 (Homo sapiens, UniProt Q96T88); test: Counterscreen for inhibitors of 5-meCpG-binding domain protein 2 (MBD2): TRFRET-based biochemical high throughput dose response assay to identify inhibitors of binding of ubiquitin-like with PHD and ring finger domains 1 (UHRF1) to methylated oligonucleotide.
# Sequence of E3 ubiquitin-protein ligase UHRF1 (Q96T88 whole entry, the tested form may be a part): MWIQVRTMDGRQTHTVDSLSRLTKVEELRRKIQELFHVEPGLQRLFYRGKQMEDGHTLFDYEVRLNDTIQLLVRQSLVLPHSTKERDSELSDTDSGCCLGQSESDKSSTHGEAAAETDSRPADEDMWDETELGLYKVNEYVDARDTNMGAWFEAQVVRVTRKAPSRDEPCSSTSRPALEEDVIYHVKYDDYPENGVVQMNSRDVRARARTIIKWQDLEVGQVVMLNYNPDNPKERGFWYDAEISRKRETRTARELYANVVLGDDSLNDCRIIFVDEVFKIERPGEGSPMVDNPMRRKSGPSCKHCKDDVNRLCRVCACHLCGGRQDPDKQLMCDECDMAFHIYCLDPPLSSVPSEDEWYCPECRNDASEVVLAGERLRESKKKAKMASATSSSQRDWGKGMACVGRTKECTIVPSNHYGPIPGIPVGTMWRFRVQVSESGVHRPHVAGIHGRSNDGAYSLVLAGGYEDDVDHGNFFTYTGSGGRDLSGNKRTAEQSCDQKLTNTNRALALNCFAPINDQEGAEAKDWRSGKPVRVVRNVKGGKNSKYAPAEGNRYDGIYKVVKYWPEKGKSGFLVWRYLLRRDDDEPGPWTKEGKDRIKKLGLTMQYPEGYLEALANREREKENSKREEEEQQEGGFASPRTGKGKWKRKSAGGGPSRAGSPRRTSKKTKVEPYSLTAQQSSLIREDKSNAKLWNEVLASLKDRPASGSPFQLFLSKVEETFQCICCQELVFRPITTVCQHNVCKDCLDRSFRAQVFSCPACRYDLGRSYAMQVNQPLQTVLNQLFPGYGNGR
# [5] = target: Caspase-6 (Homo sapiens, UniProt P55212); test: inhibition of CASP6 peptide cleavage – biochemical, VEID-R110 fluorescence, cherry-pick, dose response (AID 720632)
# Sequence of Caspase-6 (P55212 24-179 limits assumed): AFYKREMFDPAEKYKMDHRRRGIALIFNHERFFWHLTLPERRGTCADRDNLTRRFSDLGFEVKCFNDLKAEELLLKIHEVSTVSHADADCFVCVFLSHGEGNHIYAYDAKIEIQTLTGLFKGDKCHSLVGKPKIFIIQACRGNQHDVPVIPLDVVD
# Sequence of Caspase-6 (P55212 194-293 limits assumed): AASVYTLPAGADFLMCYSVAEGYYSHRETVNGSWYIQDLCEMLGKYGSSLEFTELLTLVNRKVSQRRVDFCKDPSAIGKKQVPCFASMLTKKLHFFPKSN
# [6] = target: T3, Methionyl-tRNA synthetase, putative (Trypanosoma brucei brucei, UniProt Q38C91); format: functional, Trypanosoma brucei brucei strain 927/4 GUTat10.1
# T3 sequence (Q38C91 whole entry): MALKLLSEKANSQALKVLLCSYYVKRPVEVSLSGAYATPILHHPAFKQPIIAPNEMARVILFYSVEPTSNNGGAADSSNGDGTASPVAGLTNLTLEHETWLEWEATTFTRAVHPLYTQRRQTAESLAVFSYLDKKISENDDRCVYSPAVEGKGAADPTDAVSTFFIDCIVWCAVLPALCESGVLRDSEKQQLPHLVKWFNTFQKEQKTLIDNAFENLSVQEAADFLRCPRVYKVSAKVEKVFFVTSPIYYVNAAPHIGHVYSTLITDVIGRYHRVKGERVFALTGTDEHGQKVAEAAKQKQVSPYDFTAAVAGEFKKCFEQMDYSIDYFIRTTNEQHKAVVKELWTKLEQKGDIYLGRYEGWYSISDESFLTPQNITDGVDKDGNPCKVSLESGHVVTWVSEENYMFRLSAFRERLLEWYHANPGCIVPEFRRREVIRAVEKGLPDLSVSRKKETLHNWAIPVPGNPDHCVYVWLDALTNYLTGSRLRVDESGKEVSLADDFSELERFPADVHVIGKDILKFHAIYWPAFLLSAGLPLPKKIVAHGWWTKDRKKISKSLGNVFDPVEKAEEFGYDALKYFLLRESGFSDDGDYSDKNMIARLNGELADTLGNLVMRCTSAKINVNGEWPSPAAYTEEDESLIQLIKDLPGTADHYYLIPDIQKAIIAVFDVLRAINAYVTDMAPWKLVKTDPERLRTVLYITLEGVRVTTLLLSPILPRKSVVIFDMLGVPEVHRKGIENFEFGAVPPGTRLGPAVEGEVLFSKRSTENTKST
# [7] = Counterscreen for inhibitors of Trypanosoma brucei methionyl tRNA synthetase (MetRS): Luminescence-based cell-based high throughput dose response assay to identify compounds that are cytotoxic to Jurkat human T lymphocyte cells.; format: functional
# [8] = target: T3, Methionyl-tRNA synthetase, putative; format: functional, Trypanosoma brucei brucei strain 927/4 GUTat10.1; remark: listed apart in the source
# [9] = Late stage counterscreen for inhibitors of Trypanosoma brucei methionyl tRNA synthetase (MetRS): Luminescence-based cell-based high throughput dose response assay to identify compounds that are cytotoxic to Jurkat human T lymphocyte cells.; format: functional
# [10] = target: NAD-dependent protein deacylase sirtuin-5, mitochondrial (Homo sapiens, UniProt Q9NXA8); test: sirtuin-5 deacylation blockers, concentration series – biochemical, fluorescence imaging, cherry-pick, set 5, dose response (AID 720591);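 note: desuccinylation of succinyl peptide AMC substrate read as fluorescence after trypsin release; potency of inhibitors that lower fluorescence and may act on trypsin instead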
# Sequence of NAD-dependent protein deacylase sirtuin-5, mitochondrial (Q9NXA8 whole entry): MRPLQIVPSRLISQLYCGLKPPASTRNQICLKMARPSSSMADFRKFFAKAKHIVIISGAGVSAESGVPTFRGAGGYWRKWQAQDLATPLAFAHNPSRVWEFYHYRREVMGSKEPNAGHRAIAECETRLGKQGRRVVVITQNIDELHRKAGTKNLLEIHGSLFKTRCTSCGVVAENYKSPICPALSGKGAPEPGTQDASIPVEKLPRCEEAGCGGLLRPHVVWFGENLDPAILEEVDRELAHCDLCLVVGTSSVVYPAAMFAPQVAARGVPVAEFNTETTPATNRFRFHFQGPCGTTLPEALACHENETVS
# [11] = target: Paired box protein Pax-8 (Homo sapiens, UniProt Q06710); test: PAX8 transcriptional activity inhibition in RMG-I – RMG-I cells, luciferase, cherry-pick, dose response (AID 687027); format: functional, cell-based;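 note: luciferase reporter driven by Pax8 target thyroperoxidase promoter measured by SteadyGlo luminescence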
# Sequence of Paired box protein Pax-8 (Q06710 whole entry): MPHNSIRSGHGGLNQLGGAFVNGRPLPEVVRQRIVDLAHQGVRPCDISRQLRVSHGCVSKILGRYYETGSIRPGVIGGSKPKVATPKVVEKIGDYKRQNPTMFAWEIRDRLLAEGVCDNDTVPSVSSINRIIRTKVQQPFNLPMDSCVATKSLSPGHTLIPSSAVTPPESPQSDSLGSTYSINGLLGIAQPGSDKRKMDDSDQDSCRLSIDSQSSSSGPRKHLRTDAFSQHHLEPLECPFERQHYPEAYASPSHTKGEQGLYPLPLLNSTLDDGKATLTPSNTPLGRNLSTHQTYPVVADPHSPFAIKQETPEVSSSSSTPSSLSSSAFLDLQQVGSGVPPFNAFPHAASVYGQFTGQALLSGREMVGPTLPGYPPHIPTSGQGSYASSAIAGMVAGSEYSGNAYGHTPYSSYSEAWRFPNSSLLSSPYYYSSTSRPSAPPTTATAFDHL
# [12] = COV362 cell viability loss – plate reader, dry powder, SA12, cytotoxicity control for PAX8 inhibitor project, dose response (AID 743144); format: functional, cell-based
# [13] = toxicity toward immortalized ovarian surface epithelium – cell-based, plate reader, dry powder samples, cytotoxicity control for PAX8 inhibitor project, dose response (AID 743045); format: functional
# [14] = OVCAR-3 cell viability loss – plate reader, dry powder samples, PAX8 inhibitor project, dose response (AID 743044); format: functional, cell-based
# [15] = PAX5 cellular inhibition readout – cell-based, plate reader, dry powder samples, selectivity assay for PAX8 inhibitor project, dose response (AID 743047); format: functional;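 note: HEK293 cells carrying a Pax5 driven CD19 promoter luciferase reporter; potency of inhibitors that lower reporter luminescence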
# [16] = IGROV1 cell killing – plate reader, dry powder samples, PAX8 inhibitor project, dose response (AID 743043); format: functional, cell-based; conditions: IGROV-1
# [17] = OVCAR4 cell viability loss – plate reader, dry powder, SA11, cytotoxicity control for PAX8 inhibitor project, dose response (AID 743150); format: functional, cell-based; conditions: OVCAR-4
# [18] = COV434 cell viability loss – plate reader, dry powder, SA7, cytotoxicity control for PAX8 inhibitor project, dose response (AID 743145); format: functional, cell-based
# [19] = OV-90 cell viability loss – plate reader, dry powder, SA8, PAX8 inhibitor project, dose response (AID 743149); format: functional, cell-based
# [20] = PAX8-dependent cell viability loss – plate reader, dry powder, dose response (AID 743049); format: functional, cell-based
# [21] = potency of ADAM10 substrate cleavage blockers – biochemical, QFRET, dose response (AID 743254);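 note: ADAM10 enzyme with the DM2 quenched FRET peptide as substrate; EDANS fluorescence gain as the protease cuts the substrate; inhibitor potency against ADAM10 proteolytic activity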
# [22] = target: T2, Disintegrin and metalloproteinase domain-containing protein 17; test: inhibition of ADAM17 substrate cleavage – biochemical, quenched FRET substrate, counter-screen for ADAM10 exosite inhibitor project, dose response (AID 743253)
# [23] = target: fMet-Leu-Phe receptor (Homo sapiens, UniProt P21462); test: formyl peptide receptor binders – dose response (AID 519); format: functional
# Sequence of fMet-Leu-Phe receptor (P21462 whole entry): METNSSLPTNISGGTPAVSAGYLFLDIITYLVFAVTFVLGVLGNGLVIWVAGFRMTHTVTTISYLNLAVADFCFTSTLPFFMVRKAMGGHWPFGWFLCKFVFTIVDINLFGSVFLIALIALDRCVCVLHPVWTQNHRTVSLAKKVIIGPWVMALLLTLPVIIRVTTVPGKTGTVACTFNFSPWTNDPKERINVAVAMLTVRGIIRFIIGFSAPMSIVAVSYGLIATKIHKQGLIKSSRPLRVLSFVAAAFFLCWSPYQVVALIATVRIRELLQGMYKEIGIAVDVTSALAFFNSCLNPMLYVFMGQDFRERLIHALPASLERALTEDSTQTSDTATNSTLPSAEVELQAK
# [24] = ATP-based viability loss in A549 cells – cell-based, CellTiter-Glo luminescence, dry powder samples, cytotoxicity control, dose response (AID 720585); format: functional
smiles,measurement,setting,value
Nc1cc(S(=O)(=O)N2CCCCC2)ccc1Oc1ccc(Cl)cc1,IC50,[1],5.69 µM (not active)
same,IC50,[2],> 69.5 µM (inactive)
same,IC50,[3],> 69.5 µM (inactive)
OCCCNCc1cccc2ccccc12,IC50,[4],> 43.9 µM (inactive)
O=C(Nc1sc2c(c1C(=O)O)CCC2)C(=O)N1CCOCC1,AC50,[5],30.7 µM (active)
CC(C)OCCCN1CC(=O)N2C(c3cccc([N+](=O)[O-])c3)c3[nH]c4ccccc4c3C[C@H]2C1=O (some centres undefined),IC50,[6],2.17 µM (active)
same,IC50,[7],73.1 µM (inactive)
same,IC50,[8],0.979 µM (active)
same,IC50,[9],> 83.3 µM (inactive)
COc1ccc(OC)c(NC(=O)C2CCN(C(=O)c3cccs3)CC2)c1,AC50,[10],26.6 µM (active)
NS(=O)(=O)c1ccc(CCN2C(=O)/C(=C\c3ccc(Cl)cc3)SC2=S)cc1,AC50,[11],3.81 µM (active)
same,AC50,[12],24.9 µM (active)
same,AC50,[13],79.8 µM (active)
same,AC50,[14],22.3 µM (active)
same,AC50,[15],67.7 µM (active)
same,AC50,[16],30.4 µM (active)
same,AC50,[17],48.2 µM (active)
same,AC50,[18],29.8 µM (active)
same,AC50,[19],26.2 µM (active)
same,AC50,[20],15.5 µM (active)
Cc1cccc([C@@H]2[C@@H]3C(=O)N(Cc4ccccc4)C(=O)[C@@H]3[C@]3(Cc4ccccc4)C(=O)N(c4ccc(C(F)(F)F)cc4)C(=O)N23)c1,IC50,[21],> 69.6 µM (inactive)
same,IC50,[22],> 69.6 µM (inactive)
COc1ccc2c(=O)c(-c3cnn(-c4ccccc4)c3)c(C)oc2c1,Ki,[23],> 66.7 µM (inactive)
Cc1ccc(/C=C(\CCCC(=O)O)c2nc3ccccc3s2)cc1[N+](=O)[O-],AbsAC50_uM,[24],140.77 µM

# Source: ChEMBL document CHEMBL1201862, “PubChem BioAssay data set” (2004)
